# Measurements: patent publication US12521399B2, “Compound as voltage-gated sodium channel inhibitor” (Guangzhou Fermion Technology Co., Ltd., priority 2022, dated 2026)
# Assays:
# [1] = molecular target: T1, human Nav1.8 ion channel stably expressed by CHO cells (Homo sapiens, UniProt Q9Y5Y9); assay: Blocking activity on sodium ion channel 1.8 (Nav1.8), manual whole-cell patch clamp; type: cell-based; settings: Nav1.8 peak sodium current; for inhibition at 0.01 µM: 10 nM compound, read-out: Inhibition rate (%) @ 10 nM; for inhibition at 0.1 µM: 100 nM compound, read-out: Inhibition rate (%) @ 100 nM
# T1 construct: expressed in transfected cells
# T1 sequence (Q9Y5Y9 whole entry): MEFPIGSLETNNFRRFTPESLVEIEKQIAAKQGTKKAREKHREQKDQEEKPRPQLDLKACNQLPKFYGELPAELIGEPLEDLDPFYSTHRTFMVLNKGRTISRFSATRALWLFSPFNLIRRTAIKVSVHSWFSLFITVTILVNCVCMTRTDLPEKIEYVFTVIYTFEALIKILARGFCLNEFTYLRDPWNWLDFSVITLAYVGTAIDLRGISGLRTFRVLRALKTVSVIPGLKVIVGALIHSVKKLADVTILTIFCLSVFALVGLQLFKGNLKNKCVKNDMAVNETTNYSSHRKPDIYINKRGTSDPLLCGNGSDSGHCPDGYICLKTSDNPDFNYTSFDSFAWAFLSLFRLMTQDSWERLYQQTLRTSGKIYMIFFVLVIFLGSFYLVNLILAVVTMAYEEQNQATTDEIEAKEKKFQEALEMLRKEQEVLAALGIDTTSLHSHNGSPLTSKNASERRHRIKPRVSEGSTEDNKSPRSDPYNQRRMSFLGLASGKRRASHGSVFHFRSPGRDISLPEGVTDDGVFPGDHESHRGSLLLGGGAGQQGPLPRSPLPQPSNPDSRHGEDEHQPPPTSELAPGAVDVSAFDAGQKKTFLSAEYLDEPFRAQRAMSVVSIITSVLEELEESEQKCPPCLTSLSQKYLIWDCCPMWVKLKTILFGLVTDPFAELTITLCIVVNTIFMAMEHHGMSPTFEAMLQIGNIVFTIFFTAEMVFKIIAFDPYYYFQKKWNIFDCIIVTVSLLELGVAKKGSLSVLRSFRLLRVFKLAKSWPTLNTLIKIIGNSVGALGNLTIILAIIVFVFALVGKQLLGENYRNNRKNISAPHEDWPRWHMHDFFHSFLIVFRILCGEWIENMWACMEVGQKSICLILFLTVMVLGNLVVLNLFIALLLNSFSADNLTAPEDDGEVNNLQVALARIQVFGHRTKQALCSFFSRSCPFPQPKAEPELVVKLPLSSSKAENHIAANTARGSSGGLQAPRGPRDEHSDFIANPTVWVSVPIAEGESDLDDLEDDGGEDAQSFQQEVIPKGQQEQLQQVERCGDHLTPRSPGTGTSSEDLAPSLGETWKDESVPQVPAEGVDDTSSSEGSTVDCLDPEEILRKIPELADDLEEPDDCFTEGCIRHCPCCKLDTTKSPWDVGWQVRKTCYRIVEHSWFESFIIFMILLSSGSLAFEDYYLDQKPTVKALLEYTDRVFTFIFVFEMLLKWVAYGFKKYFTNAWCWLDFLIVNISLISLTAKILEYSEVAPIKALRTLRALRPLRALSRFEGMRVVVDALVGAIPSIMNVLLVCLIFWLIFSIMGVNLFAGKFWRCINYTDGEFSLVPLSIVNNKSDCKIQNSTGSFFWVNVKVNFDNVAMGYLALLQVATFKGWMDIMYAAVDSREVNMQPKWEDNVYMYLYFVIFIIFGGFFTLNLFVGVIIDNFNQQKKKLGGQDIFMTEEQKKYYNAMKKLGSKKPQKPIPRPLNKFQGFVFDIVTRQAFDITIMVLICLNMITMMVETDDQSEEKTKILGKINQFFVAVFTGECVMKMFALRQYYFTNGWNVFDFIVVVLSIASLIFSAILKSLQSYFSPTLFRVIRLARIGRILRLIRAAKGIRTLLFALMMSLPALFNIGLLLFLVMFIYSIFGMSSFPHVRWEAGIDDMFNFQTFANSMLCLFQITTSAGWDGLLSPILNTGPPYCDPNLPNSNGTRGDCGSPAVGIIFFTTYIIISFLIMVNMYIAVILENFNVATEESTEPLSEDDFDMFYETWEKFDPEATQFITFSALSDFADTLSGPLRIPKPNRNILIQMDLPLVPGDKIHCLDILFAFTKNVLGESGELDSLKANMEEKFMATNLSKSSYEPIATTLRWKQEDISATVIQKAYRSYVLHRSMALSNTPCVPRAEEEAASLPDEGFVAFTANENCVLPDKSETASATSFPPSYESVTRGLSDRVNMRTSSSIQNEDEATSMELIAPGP
# Experimental: Test Example A: Blocking activity of the compound of the present invention on sodium ion channel 1.8 (Nav1.8)
# Experimental objective: to determine the rate of inhibition of the compound on the human Nav1.8 ion channel stably expressed by CHO cells
# The compound was dissolved using DMSO to prepare a stock solution. The stock solution was diluted with an extracellular fluid (140 mM NaCl, 3.5 mM KCl, 1 mM MgCl2, 2 mM CaCl2), 10 mM D-glucose, 10 mM HEPES, 1.25 mM NaH2PO4 2H2O, pH=7.4 (NaOH)) to particular concentrations to be used in manual patch clamp testing.
# A capillary glass tube was stretched to form a recording electrode using a microelectrode puller. A microelectrode manipulator was operated under an inverted microscope to contact the recording electrode to the cells, and negative suction pressure was applied to form a GQ seal. Once the GQ seal was formed, rapid capacitance compensation was performed, and then the negative pressure was continued to break the cell membrane, forming a whole cell recording mode. Slow capacitance was compensated for, and the film capacitance and series resistance were recorded. No leakage compensation was applied. Once the Nav1.8 current recorded in the whole cell was stabilized, administration of the compound was started. The compound was allowed to act at the first concentration for 5 min (or until the electric current stabilized), and then the second concentration was tested. For each test compound, two concentrations were tested.
# The voltage stimulation protocol for whole-cell patch clamp recording of Nav1.8 sodium current was as follows: once the whole cell seal was formed, the cellular voltage was clamped at −120 mV for 30 ms. The clamping voltage was depolarized to 0 mV for 50 ms, and then the voltage was restored to −50 mV (for the specific voltage, reference was made to the half inactivation voltage in IV testing) for 8 s. […] Data acquisition was repeated every 20 s. The effect of the compound on the peak value of the sodium current was observed. The experimental data was collected by an EPC-10 amplifier (HEKA) and was stored in PatchMaster (HEKA) software.
# [2] = Pharmacokinetic evaluation by intravenous injection or gavage in rats; settings: Sprague-Dawley (SD), rat, in vivo
# Experimental: Test Example B: Quantitative pharmacokinetic evaluation of the compound of the present invention administered by intravenous injection or gavage in rats.
# The present inventors conducted pharmacokinetic evaluation of the compound of the present invention in rats.
# The compound of the present invention was administered to the test animals as a solution of 5% DMSO+5% tween 80+90% physiological saline solution. The animals were fasted for 12 hours prior to the administration, but had free access to water. For the intravenous injection administration group, the administration dose was 1 mg/kg; for gavage administration, the administration dose was 10 mg/kg. Following administration, blood was intravenously collected from the animals (approximately 0.3 mL of blood) at the following time points: 0.083 h, 0.25 h, 0.5 h, 1.0 h, 2.0 h, 4.0 h, 8.0 h, and 24 h. The blood collection tubes previously had EDTA-K2 added thereto as an anticoagulant. Each blood sample was centrifuged at 6800 g at a low temperature for 6 minutes, and plasma was collected and stored at −80° C.
# Sample preparation for LC-MS/MS assay: 20 μL of the plasma sample was subjected to protein precipitation using 400 μL of methanol containing 100 ng/mL of IS (tolbutamide). The mixture was vortexed for 1 minute and then centrifuged at 18000 g for 7 minutes. 400 μL of the supernatant was transferred to a 96-well plate. 2 μL of the supernatant were subjected to LC-MS/MS analysis.
# [3] = molecular target: Nav1.3 (Homo sapiens, UniProt Q9NY46); settings: read-out: TTX IC50 (nm); cited from earlier work
# Sequence of Nav1.3 (Q9NY46 whole entry, looked up): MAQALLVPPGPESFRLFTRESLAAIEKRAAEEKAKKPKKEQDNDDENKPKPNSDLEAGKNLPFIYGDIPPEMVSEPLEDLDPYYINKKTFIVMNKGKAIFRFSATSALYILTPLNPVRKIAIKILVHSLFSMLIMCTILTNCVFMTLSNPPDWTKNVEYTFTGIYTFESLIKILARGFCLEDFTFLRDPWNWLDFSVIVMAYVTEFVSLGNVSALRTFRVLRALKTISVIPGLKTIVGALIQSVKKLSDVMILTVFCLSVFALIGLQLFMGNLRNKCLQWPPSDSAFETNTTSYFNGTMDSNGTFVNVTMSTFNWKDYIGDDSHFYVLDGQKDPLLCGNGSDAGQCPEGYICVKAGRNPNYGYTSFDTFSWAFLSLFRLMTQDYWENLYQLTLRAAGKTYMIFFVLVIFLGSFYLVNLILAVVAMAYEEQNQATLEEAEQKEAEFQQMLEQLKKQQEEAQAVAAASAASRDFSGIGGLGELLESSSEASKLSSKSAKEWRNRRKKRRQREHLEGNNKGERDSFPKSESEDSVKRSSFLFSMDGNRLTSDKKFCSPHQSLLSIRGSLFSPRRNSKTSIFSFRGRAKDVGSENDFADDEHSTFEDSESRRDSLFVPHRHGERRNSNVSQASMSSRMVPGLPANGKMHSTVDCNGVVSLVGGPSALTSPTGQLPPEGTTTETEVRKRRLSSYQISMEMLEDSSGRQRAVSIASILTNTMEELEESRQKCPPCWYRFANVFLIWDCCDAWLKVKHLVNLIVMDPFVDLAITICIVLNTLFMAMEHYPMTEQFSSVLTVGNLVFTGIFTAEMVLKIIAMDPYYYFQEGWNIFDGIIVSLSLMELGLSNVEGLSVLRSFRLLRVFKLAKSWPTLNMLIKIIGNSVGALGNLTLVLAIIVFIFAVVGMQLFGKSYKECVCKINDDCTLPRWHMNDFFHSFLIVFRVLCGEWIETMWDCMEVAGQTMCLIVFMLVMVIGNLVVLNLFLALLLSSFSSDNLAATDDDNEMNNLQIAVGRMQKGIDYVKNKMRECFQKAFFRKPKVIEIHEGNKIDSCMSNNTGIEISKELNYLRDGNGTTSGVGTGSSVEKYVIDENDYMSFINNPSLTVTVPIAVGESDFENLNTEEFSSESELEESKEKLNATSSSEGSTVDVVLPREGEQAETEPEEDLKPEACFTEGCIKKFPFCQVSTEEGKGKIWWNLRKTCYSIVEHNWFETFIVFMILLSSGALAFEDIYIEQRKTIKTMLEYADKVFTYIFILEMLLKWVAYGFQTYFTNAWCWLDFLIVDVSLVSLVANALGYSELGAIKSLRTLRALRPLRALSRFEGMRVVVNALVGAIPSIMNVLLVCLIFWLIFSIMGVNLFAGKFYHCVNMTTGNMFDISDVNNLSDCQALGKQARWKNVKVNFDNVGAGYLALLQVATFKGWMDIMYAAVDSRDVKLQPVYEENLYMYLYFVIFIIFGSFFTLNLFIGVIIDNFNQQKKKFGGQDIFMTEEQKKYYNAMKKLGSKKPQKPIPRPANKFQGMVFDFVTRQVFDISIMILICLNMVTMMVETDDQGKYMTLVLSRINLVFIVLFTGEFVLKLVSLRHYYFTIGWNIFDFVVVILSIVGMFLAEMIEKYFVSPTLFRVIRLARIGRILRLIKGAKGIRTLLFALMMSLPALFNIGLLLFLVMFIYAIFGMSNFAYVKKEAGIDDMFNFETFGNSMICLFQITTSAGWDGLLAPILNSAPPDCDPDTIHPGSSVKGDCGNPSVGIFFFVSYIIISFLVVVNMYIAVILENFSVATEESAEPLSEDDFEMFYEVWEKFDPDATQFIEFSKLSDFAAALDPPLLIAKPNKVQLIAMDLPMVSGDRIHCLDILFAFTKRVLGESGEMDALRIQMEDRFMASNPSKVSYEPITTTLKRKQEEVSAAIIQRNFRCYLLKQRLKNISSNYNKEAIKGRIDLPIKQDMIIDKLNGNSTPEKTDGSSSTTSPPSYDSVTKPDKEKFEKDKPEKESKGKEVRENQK
# [4] = molecular target: Nav1.8 (Homo sapiens, UniProt Q9Y5Y9); settings: read-out: TTX IC50 (nm); cited from earlier work
# Sequence of Nav1.8 (Q9Y5Y9 whole entry, looked up): as the sequence (Q9Y5Y9 whole entry) above
smiles,measurement,setting,value
"CS(=N)(=O)c1cc(NC(=O)c2cc(Cl)c(C(F)(F)F)cc2N2CCCC(F)(F)CC2)ccn1 (stereo not drawn) [Compound 17, 5-chloro-2-(4,4-difluoroazepan-1-yl)-N-(2-(S-methyliminosulfonyl)pyridin-4-yl)-4-(trifluoromethyl)benzamide]",inhibition at 0.01 µM,[1],71.9%
same,inhibition at 0.1 µM,[1],96.5%
"Cc1cc(F)ccc1Oc1cc(C(F)(F)F)c(Cl)cc1C(=O)Nc1ccnc(S(=O)(=O)N[C@@H]2CCNC2)c1 [Compound 2, (R)-5-chloro-2-(4-fluoro-2-methylphenoxy)-N-(2-(N-(pyrrolidin-3-yl)sulfamoyl)pyridin-4-yl)-4-(trifluoromethyl)benzamide]",inhibition at 0.01 µM,[1],84.5%
same,inhibition at 0.1 µM,[1],100%
"Cc1cc(F)ccc1Oc1cc(C(F)(F)F)c(Cl)cc1C(=O)Nc1ccnc(S(=O)(=O)NCC2CCNCC2)c1 [Compound 5, 5-chloro-2-(4-fluoro-2-methylphenoxy)-N-(2-(N-(piperidin-4-ylmethyl)sulfamoyl)pyridin-4-yl)-4-(trifluoromethyl)benzamide]",inhibition at 0.01 µM,[1],78.5%
same,inhibition at 0.1 µM,[1],96.8%
"Cc1cc(F)ccc1Oc1cc(C(F)(F)F)c(Cl)cc1C(=O)Nc1ccnc(S(C)(=N)=O)c1 (stereo not drawn) [Compound 13, 5-chloro-2-(4-fluoro-2-methylphenoxy)-N-(2-(S-methyliminosulfonyl)pyridin-4-yl)-4-(trifluoromethyl)benzamide]",AUC(0-t),"[2]; iv, 1 mg/kg",2240 ng·h/mL
same,Cmax,"[2]; iv, 1 mg/kg",496 ng/mL
same,Tmax,"[2]; iv, 1 mg/kg",0.08 h
same,Vd,"[2]; iv, 1 mg/kg",2.48 L/kg
same,clearance,"[2]; iv, 1 mg/kg",7.52 mL/min/kg
same,half-life,"[2]; iv, 1 mg/kg",3.88 h
same,AUC(0-t),"[2]; po, 10 mg/kg",18600 ng·h/mL
same,Cmax,"[2]; po, 10 mg/kg",1840 ng/mL
same,Tmax,"[2]; po, 10 mg/kg",2.67 h
same,bioavailability,"[2]; po, 10 mg/kg",83.2%
same,half-life,"[2]; po, 10 mg/kg",3.85 h
same,inhibition at 0.01 µM,[1],52.4%
same,inhibition at 0.1 µM,[1],97.2%
"Cc1cc(F)ccc1Oc1cc(C(F)(F)F)c(Cl)cc1C(=O)Nc1ccnc(S(=O)(=O)NC[C@H]2CCNC2)c1 [Compound 7, (S)-5-chloro-2-(4-fluoro-2-methylphenoxy)-N-(2-(N-(pyrrolidin-3-ylmethyl)sulfamoyl)pyridin-4-yl)-4-(trifluoromethyl)benzamide]",inhibition at 0.01 µM,[1],91.5%
same,inhibition at 0.1 µM,[1],97.1%
"CCCN1CC[C@@H](NS(=O)(=O)c2cc(NC(=O)c3cc(Cl)c(C(F)(F)F)cc3Oc3ccc(F)cc3C)ccn2)C1 [Compound 12, (R)-5-chloro-2-(4-fluoro-2-methylphenoxy)-N-(2-(N-(1-propylpyrrolidin-3-yl)sulfamoyl)pyridin-4-yl)-4-(trifluoromethyl)benzamide]",inhibition at 0.01 µM,[1],71.5%
same,inhibition at 0.1 µM,[1],97.9%
"[2H]C([2H])([2H])Oc1cc(OC(F)(F)F)ccc1Oc1cc(C(F)(F)F)c(Cl)cc1C(=O)Nc1ccc(F)c(S(C)(=N)=O)c1 (stereo not drawn) [Compound 25, 5-chloro-N-(4-fluoro-3-(S-methyliminosulfonyl)phenyl)-2-(2-(methoxy-d3)-4-(trifluoromethoxy)phenoxy)-4-(trifluoromethyl)benzamide]",inhibition at 0.01 µM,[1],82%
same,inhibition at 0.1 µM,[1],95.5%
"Cc1cc(F)ccc1Oc1cc(C(F)(F)F)c(Cl)cc1C(=O)Nc1ccnc(S(=O)(=O)N[C@H]2CCN(CCF)C2)c1 [Compound 10, (S)-5-chloro-2-(4-fluoro-2-methylphenoxy)-N-(2-(N-(1-(2-fluoroethyl)pyrrolidin-3-yl)sulfamoyl)pyridin-4-yl)-4-(trifluoromethyl)benzamide]",inhibition at 0.01 µM,[1],46.2%
same,inhibition at 0.1 µM,[1],83.4%
CCN1CC[C@@H](NS(=O)(=O)c2cc(NC(=O)c3cc(Cl)c(C(F)(F)F)cc3Oc3ccc(F)cc3C)ccn2)C1 [Compound 11],inhibition at 0.01 µM,[1],80.5%
same,inhibition at 0.1 µM,[1],97.8%
"Cc1cc(F)ccc1Oc1cc(C(F)(F)F)c(Cl)cc1C(=O)Nc1cnnc(S(C)(=N)=O)c1 (stereo not drawn) [Compound 20, 5-chloro-2-(4-fluoro-2-methylphenoxy)-N-(6-(S-methyliminosulfonyl) 76 yridazine-4-yl)-4-(trifluoromethyl)benzamide]",inhibition at 0.01 µM,[1],46.8%
same,inhibition at 0.1 µM,[1],86.5%
CCN1CC[C@H](NS(=O)(=O)c2cc(NC(=O)c3cc(Cl)c(C(F)(F)F)cc3Oc3ccc(F)cc3C)ccn2)C1 [Compound 8],inhibition at 0.01 µM,[1],68.6%
same,inhibition at 0.1 µM,[1],93%
"[2H]C([2H])([2H])Oc1cc(F)ccc1Oc1cc(C(F)(F)F)c(Cl)cc1C(=O)Nc1ccc(F)c(S(C)(=N)=O)c1 (stereo not drawn) [Compound 24, 5-chloro-2-(4-fluoro-2-(methoxy-d3)phenoxy)-N-(4-fluoro-3-(S-methyliminosulfonyl)phenyl)-4-(trifluoromethyl)benzamide]",inhibition at 0.01 µM,[1],83.9%
same,inhibition at 0.1 µM,[1],99%
"NC1=N[C@H](O)[C@H]2[C@H]3O[C@]4(O)O[C@@H]([C@@H](O)[C@@]2(N1)[C@@H]4O)[C@]3(O)CO [TTX, tetrodotoxin]",IC50,[3],0.004 µM
same,IC50,[4],31 µM
"CNCCNS(=O)(=O)c1cc(NC(=O)c2cc(Cl)c(C(F)(F)F)cc2Oc2ccc(F)cc2C)ccn1 [Compound 1, 5-chloro-2-(4-fluoro-2-methylphenoxy)-N-(2-(N-(2-(methylamino)ethyl)sulfamoyl)pyridin-4-yl)-4-(trifluoromethyl)benzamide]",inhibition at 0.01 µM,[1],59.8%
same,inhibition at 0.1 µM,[1],91.3%
"[2H]C([2H])([2H])Oc1cc(OC(F)(F)F)ccc1Oc1cc(C(F)(F)F)c(Cl)cc1C(=O)Nc1ccnc(S(C)(=N)=O)c1 (stereo not drawn) [Compound 15, 5-chloro-2-(2-(methoxy-d3)-4-(trifluoromethoxy)phenoxy)-N-(2-(S-methyliminosulfonyl)pyridin-4-yl)-4-(trifluoromethyl)benzamide]",inhibition at 0.01 µM,[1],86.3%
same,inhibition at 0.1 µM,[1],99.3%
"Cc1cc(F)ccc1Oc1cc(C(F)(F)F)c(Cl)cc1C(=O)Nc1ccnc(S(=O)(=O)NC[C@@H]2CCNC2)c1 [Compound 6, (R)-5-chloro-2-(4-fluoro-2-methylphenoxy)-N-(2-(N-(pyrrolidin-3-ylmethyl)sulfamoyl)pyridin-4-yl)-4-(trifluoromethyl)benzamide]",inhibition at 0.01 µM,[1],71.3%
same,inhibition at 0.1 µM,[1],98.1%
"Cc1cc(F)ccc1Oc1cc(C(F)(F)F)c(Cl)cc1C(=O)Nc1ccnc(S(=O)(=O)N[C@H]2CCNC2)c1 [Compound 3, (S)-5-chloro-2-(4-fluoro-2-methylphenoxy)-N-(2-(N-(pyrrolidin-3-yl)sulfamoyl)pyridin-4-yl)-4-(trifluoromethyl)benzamide]",inhibition at 0.01 µM,[1],92%
same,inhibition at 0.1 µM,[1],98.4%
"CCCN1CC[C@H](NS(=O)(=O)c2cc(NC(=O)c3cc(Cl)c(C(F)(F)F)cc3Oc3ccc(F)cc3C)ccn2)C1 [Compound 9, (S)-5-chloro-2-(4-fluoro-2-methylphenoxy)-N-(2-(N-(1-propylpyrrolidin-3-yl)sulfonamido)pyridin-4-yl)-4-(trifluoromethyl)benzamide]",inhibition at 0.01 µM,[1],60.1%
same,inhibition at 0.1 µM,[1],95.2%
"CS(=N)(=O)c1cc(NC(=O)c2cc(Cl)c(C(F)(F)F)cc2N2CCCC(F)(F)CC2)ccc1F (stereo not drawn) [Compound 27, 5-chloro-2-(4,4-difluoroazepan-1-yl)-N-(4-fluoro-3-(S-methyliminosulfonyl)phenyl)-4-(trifluoromethyl)benzamide]",inhibition at 0.01 µM,[1],75.1%
same,inhibition at 0.1 µM,[1],96%
"Cc1cc(F)ccc1Oc1cc(C(F)(F)F)c(Cl)cc1C(=O)Nc1ccnc(S(=O)(=O)NC2CCNCC2)c1 [Compound 4, 5-chloro-2-(4-fluoro-2-methylphenoxy)-N-(2-(N-(piperidin-4-yl)sulfamoyl)pyridin-4-yl)-4-(trifluoromethyl)benzamide]",inhibition at 0.01 µM,[1],84.9%
same,inhibition at 0.1 µM,[1],96.1%
